{"source": "patent US7902399B2", "about": "“Fatty acids analogous” (Thia Medica AS, priority 2000, dated 2011)", "origin": "cited, not measured here", "details": "rat", "data": [{"smiles": "CCCCCCCCCCCCCCSCC(=O)O", "note": "[TTA]", "values": [{"measurement": "metabolite formation in vivo (Δ9-desaturase)", "result": "a desaturated product of TTA is formed in vivo"}]}]}
